Experiments:
Jurkat cells = assay: Inhibition of proliferation of Jurkat cells (CellTiter-Glo, 72 hour); assay type: cell-based, human; conditions: 10 μM to 316 pM
Outline: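 Human T-cell leukemia Jurkat cells in RPMI 1640 with 10% FBS were exposed 72 h at 37 °C, 5% CO2 to compounds from 10 μM to 316 pM in 0.5-log steps. Anti-proliferative effect measured by CellTiter-Glo; IC50 reported in binned categories.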

[1] = biological target: CDK7/Cyclin H/MAT1 trimeric complex (Homo sapiens, UniProt P50613); assay: CDK7 kinase assay, Caliper/LabChip EZ Reader (Biortus Biosciences); assay type: biochemical; conditions: CDK7/Cyclin H/MAT1 10 nM, ATP 2 mM, FAM-CDK7tide 2 μM, 30 min incubation, read-out: CDK7 Inhibition (IC50)
Sequence of CDK7/Cyclin H/MAT1 trimeric complex (P50613 whole entry): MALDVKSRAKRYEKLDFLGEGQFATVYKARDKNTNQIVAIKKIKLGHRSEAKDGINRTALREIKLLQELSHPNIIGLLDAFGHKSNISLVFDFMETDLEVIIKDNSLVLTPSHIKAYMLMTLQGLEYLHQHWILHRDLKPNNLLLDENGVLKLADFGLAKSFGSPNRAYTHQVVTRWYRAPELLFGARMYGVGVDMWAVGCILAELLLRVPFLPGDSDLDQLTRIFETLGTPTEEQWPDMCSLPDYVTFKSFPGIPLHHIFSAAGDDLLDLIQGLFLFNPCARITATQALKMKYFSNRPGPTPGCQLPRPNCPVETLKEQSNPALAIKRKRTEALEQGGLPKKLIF
Sequence of CDK7/Cyclin H/MAT1 trimeric complex (P51946 whole entry partner): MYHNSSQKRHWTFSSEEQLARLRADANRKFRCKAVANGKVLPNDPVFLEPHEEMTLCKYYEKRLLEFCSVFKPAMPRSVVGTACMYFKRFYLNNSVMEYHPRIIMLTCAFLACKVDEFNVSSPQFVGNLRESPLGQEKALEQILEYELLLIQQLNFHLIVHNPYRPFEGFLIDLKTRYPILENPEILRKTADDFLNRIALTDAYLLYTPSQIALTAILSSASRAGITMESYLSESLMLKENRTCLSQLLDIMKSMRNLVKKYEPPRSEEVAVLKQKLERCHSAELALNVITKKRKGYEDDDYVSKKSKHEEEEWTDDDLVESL
Sequence of CDK7/Cyclin H/MAT1 trimeric complex (P51948 whole entry partner): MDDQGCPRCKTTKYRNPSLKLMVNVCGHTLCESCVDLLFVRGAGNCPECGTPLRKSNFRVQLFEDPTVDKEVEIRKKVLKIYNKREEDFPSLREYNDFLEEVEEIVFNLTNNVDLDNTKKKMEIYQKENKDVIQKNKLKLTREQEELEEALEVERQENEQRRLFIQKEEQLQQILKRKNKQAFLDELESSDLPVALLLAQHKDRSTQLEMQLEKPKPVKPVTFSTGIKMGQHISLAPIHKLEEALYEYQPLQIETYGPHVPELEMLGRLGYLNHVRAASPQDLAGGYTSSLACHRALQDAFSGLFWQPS
Procedure: Compounds of the invention were further assayed for CDK7 activity at Biortus Biosciences (Jiangyin, Jiangsu Province, P.R. of China) using a CDK7 kinase assay developed with a Caliper/LabChip EZ Reader (Perkin Elmer, Waltham, Mass.). […] The incubation period was chosen such that the total fraction of phosphorylated peptide product produced was <20% for the uninhibited kinase.

A673 cells = assay: Inhibition of proliferation of A673 cells (CyQUANT, 72 hour); assay type: cell-based, human; conditions: 72 hour proliferation
Outline: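 Human Ewing's sarcoma A673 cells in DMEM + 10% FBS + 1 mM sodium pyruvate, 37 °C, 5% CO2, exposed to compounds from 4 μM to 126.4 pM (0.5 log dilutions) for 72 h. Proliferation read by CyQUANT; IC50 reported as binned categories.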

CDK7 = biological target: T1, CDK7 (Homo sapiens, UniProt P50613); assay: CDK7 kinase activity, Adapta kinase assay (Life Technologies); assay type: biochemical; conditions: Adapta kinase assay at Life Technologies; 10 μM down to 0.514 nM, 3-fold serial dilutions; read-out: CDK7 Inhibition (IC50)
T1 construct: purchased Life Technologies (Adapta kinase assay service)
T1 sequence (P50613 whole entry): as the sequence (P50613 whole entry) above
T1 sequence (P51946 whole entry partner): as the sequence (P51946 whole entry partner) above
T1 sequence (P51948 whole entry partner): as the sequence (P51948 whole entry partner) above
Outline: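 Adapta kinase activity assay run as a commercial service; substrates not specified here. Compounds tested in 3-fold serial dilutions from 10 μM down to 0.514 nM.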

Row | SMILES | IC50 (Jurkat cells) [nM] | IC50 [1] [nM] | IC50 (CDK7) [nM] | IC50 (Jurkat cells; Homo sapiens) [nM] | IC50 (A673 cells) [nM] | IC50 (A673 cells; Homo sapiens) [nM]
1 | C=CC(=O)N1CCC2(CC1)CN([C@H]1CCC[C@@H](Nc3ncc(Cl)c(-c4c[nH]c5ccccc45)n3)C1)C(=O)O2 [Compound 186] | 500 to 5000 | < 100 | < 100 |  | < 500 | 
2 | C=CC(=O)N1CCC(CN[C@H]2CCC[C@@H](Nc3ncc(Cl)c(-c4c[nH]c5ccccc45)n3)C2)CC1 [Compound 124, 1-(4-(((1S,3R)-3-(5-chloro-4-(1H-indol-3-yl)pyrimidin-2-ylamino)cyclohexylamino)methyl)piperidin-1-yl)prop-2-en-1-One] |  | < 100 | < 100 | > 5000 |  | 
3 | CN(C)CC=CC(=O)N1CCN(C2CCCC(Nc3ncc(Cl)c(-c4c[nH]c5ccccc45)n3)C2)CC1 (stereo not shown) [Compound 237] | < 500 | < 100 | < 100 |  | < 500 | 
4 | C=CC(=O)N1CCC(C(=O)N[C@H]2CCC[C@@H](Nc3ncc(Cl)c(-c4c[nH]c5ccccc45)n3)C2)CC1 [Compound 118, 1-acryloyl-N-((1S,3R)-3-(5-chloro-4-(1H-indol-3-yl)pyrimidin-2-ylamino)cyclohexyl)piperidine-4-carboxamide] |  | < 100 | < 100 | < 500 |  | < 500
5 | CC1CN(C2CCCC(Nc3ncc(Cl)c(-c4c[nH]c5ccccc45)n3)C2)CCN1C(=O)C=CCN(C)C (stereo not shown) [Compound 230] | 500 to 5000 | < 100 | < 100 |  | < 500 | 
6 | CN(C)C/C=C/C(=O)N1CCC(O)(CN(C)[C@H]2CCC[C@@H](Nc3ncc(Cl)c(-c4c[nH]c5ccccc45)n3)C2)CC1 [Compound 228] | 500 to 5000 | < 100 | < 100 |  | < 500 | 
7 | C=CC(=O)N1CCC[C@@H]1C(=O)N[C@H]1CCC[C@@H](Nc2ncc(Cl)c(-c3c[nH]c4ccccc34)n2)C1 [Compound 173, (R)-1-acryloyl-N-((1S,3R)-3-(5-chloro-4-(1H-indol-3-yl)pyrimidin-2-ylamino)cyclohexyl)pyrrolidine-2-carboxamide] |  | < 100 | < 100 | 500 to 5000 |  | 
8 | C=CC(=O)N1CC(F)(F)C[C@H]1C(=O)N[C@H]1CCC[C@@H](Nc2ncc(Cl)c(-c3c[nH]c4ccccc34)n2)C1 [Compound 116, (S)-1-acryloyl-N-((1S,3R)-3-(5-chloro-4-(1H-indol-3-yl)pyrimidin-2-ylamino)cyclohexyl)-4,4-difluoropyrrolidine-2-carboxamide] |  | < 100 | < 100 |  |  | < 500
9 | O=C(NC1CCCC(Nc2ncc(Cl)c(-c3cnn4ccccc34)n2)C1)C1CCN(C(=O)C=CCN2CCN(C3CC3)CC2)CC1 (stereo not shown) [Compound 223] | > 5000 | < 100 | < 100 |  |  | 
10 | CN(C)C/C=C/C(=O)Nc1ccc(C(=O)N[C@H]2CCC[C@@H](Nc3ncc(C(F)(F)F)c(-c4c[nH]c5ccccc45)n3)C2)nc1 [Compound 248, N-((1S,3R)-3-((4-(1H-indol-3-yl)-5-(trifluoromethyl)pyrimidin-2-yl)amino)cyclohexyl)-5-((E)-4-(dimethylamino)but-2-enamido)picolinamide] |  | < 100 | < 100 |  |  | < 500
11 | C=CC(=O)N1CC(N(C)[C@H]2CCC[C@@H](Nc3ncc(Cl)c(-c4c[nH]c5ccccc45)n3)C2)C1 [Compound 224] |  | < 100 | < 100 | > 5000 |  | 
12 | CN(C)CC=CC(=O)N1CC(N(C)C2CCCC(Nc3ncc(Cl)c(-c4c[nH]c5ccccc45)n3)C2)C1 (stereo not shown) [Compound 231] |  | < 100 | < 100 |  |  | 
13 | CCc1cnc(N[C@@H]2CCC[C@](C)(NCc3ccc(NC(=O)/C=C/CN(C)C)cn3)C2)nc1-c1n[nH]c2ccccc12 [Compound 413, (E)-4-(dimethylamino)-N-[6-[[[(1S,3R)-3-[[5-ethyl-4-(1H-indazol-3-yl)pyrimidin-2-yl]amino]-1-methyl-cyclohexyl]amino]methyl]-3-pyridyl]but-2-enamide] |  | < 100 |  |  |  | < 500
14 | C=CC(=O)N1CCN([C@@]23CCC[C@@](Nc4ncc(Cl)c(-c5c[nH]c6ccccc56)n4)(CC2)C3)CC1 [Compound 409, 1-(4-((1S,5R)-5-(5-chloro-4-(1H-indol-3-yl)pyrimidin-2-ylamino)bicyclo[3.2.1]octan-1-yl)piperazin-1-yl)prop-2-en-1-One] |  | < 100 |  |  |  | < 500
15 | C=CC(=O)NC1CN(C2CCCC(Nc3ncc(Cl)c(-c4c[nH]c5ccccc45)n3)C2)C1 (mixture of isomers) [Compound 255] |  | < 100 |  |  | < 500 | 
16 | CN(C)C/C=C/C(=O)Nc1ccc(C(=O)N[C@H]2CCC[C@@H](Nc3ncc(Cl)c(C4C(=O)Nc5ccccc54)n3)C2)nc1 (stereo partly drawn) [Compound 282, N-((1S,3R)-3-(5-Chloro-4-(2-oxoindolin-3-yl)pyrimidin-2-ylamino)cyclohexyl)-5-((E)-4-(dimethylamino)but-2-enamido)picolinamide] |  | 100 to 1000 |  |  |  | < 500

Continued, in another order:

Row | IC50 (Jurkat cells) [nM] | IC50 [1] [nM] | IC50 (CDK7) [nM] | IC50 (Jurkat cells; Homo sapiens) [nM] | SMILES | IC50 (A673 cells) [nM] | IC50 (A673 cells; Homo sapiens) [nM]
17 | < 500 | < 100 |  |  | C=CC(=O)N1CCN(CC2(O)CCC[C@@H](Nc3ncc(Cl)c(-c4c[nH]c5ccccc45)n3)C2)CC1 (single isomer, unassigned) [Compound 188] | < 500 | 
18 |  | < 100 | < 100 | 500 to 5000 | C=CC(=O)N1CCCC(C(=O)N[C@H]2CC[C@H](Nc3ncc(Cl)c(-c4c[nH]c5ccccc45)n3)CC2)C1 (stereo partly shown) [Compound 158, 1-acryloyl-N-((1r,4r)-4-(5-chloro-4-(1H-indol-3-yl)pyrimidin-2-ylamino)cyclohexyl)piperidine-3-carboxamide] |  | 
19 |  | < 100 | < 100 | > 5000 | C=CC(=O)N1CCC(NC[C@@H]2CCC[C@H](Nc3ncc(Cl)c(-c4c[nH]c5ccccc45)n3)C2)CC1 [Compound 212, 1-[4-[[(1R,3S)-3-[[5-chloro-4-(1H-indol-3-yl)pyrimidin-2-yl]amino]cyclohexyl]methylamino]-1-piperidyl]prop-2-en-1-One] |  | < 500
20 |  | 100 to 1000 | < 100 | > 5000 | C=CC(=O)Nc1cnc(C(=O)N[C@H]2CCC[C@@H](Nc3ncc(Cl)c(-c4c[nH]c5ccccc45)n3)C2)nc1 [Compound 112, 5-acrylamido-N-((1S,3R)-3-(5-chloro-4-(1H-indol-3-yl)pyrimidin-2-ylamino)cyclohexyl)pyrimidine-2-carboxamide] |  | < 500
21 |  | < 100 | < 100 | < 500 | C=CC(=O)N1CCC[C@H]1C(=O)N[C@H]1CCC[C@@H](Nc2ncc(Cl)c(-c3c[nH]c4ccccc34)n2)C1 [Compound 115, (S)-1-acryloyl-N-((1S,3R)-3-(5-chloro-4-(1H-indol-3-yl)pyrimidin-2-ylamino)cyclohexyl)pyrrolidine-2-carboxamide] |  | < 500
22 |  | < 100 | < 100 |  | CN(C)C/C=C/C(=O)Nc1ccc(C(=O)N[C@H]2CCC[C@@H](Nc3ncc(Cl)c(-c4c[nH]c5ccccc45)n3)C2)nc1 [Compound 106, N-((1S,3R)-3-(5-chloro-4-(1H-indol-3-yl)pyrimidin-2-ylamino)cyclohexyl)-5-((E)-4-(dimethylamino)but-2-enamido)picolinamide] |  | < 500
23 |  | < 100 | < 100 | < 500 | CN(C)C/C=C/C(=O)Nc1cnc(C(=O)N[C@H]2CCC[C@@H](Nc3ncc(Cl)c(-c4c[nH]c5ccccc45)n3)C2)nc1 [Compound 113, N-((1S,3R)-3-(5-chloro-4-(1H-indol-3-yl)pyrimidin-2-ylamino)cyclohexyl)-5-((E)-4-(dimethylamino)but-2-enamido)pyrimidine-2-carboxamide] |  | < 500
24 |  | < 100 | < 100 |  | C=CC(=O)N1CCN([C@H]2CCC[C@@H](Nc3ncc(Cl)c(-c4c[nH]c5ccccc45)n3)C2)CC1 [Compound 168, 1-(4-((1S,3R)-3-(5-chloro-4-(1H-indol-3-yl)pyrimidin-2-ylamino)cyclohexyl)piperazin-1-yl)prop-2-en-1-One] |  | < 500
25 |  | < 100 |  |  | C=CC(=O)N[C@H]1CCN([C@H]2CCC[C@@H](Nc3ncc(Cl)c(-c4c[nH]c5ccccc45)n3)C2)C1 [Compound 370, N—((S)-1-((1S,3R)-3-((5-chloro-4-(1H-indol-3-yl)pyrimidin-2-yl)amino)cyclohexyl)pyrrolidin-3-yl)acrylamide] |  | < 500
26 |  | < 100 |  |  | CN(C)C/C=C/C(=O)N1CCN([C@H]2CCC[C@@H](Nc3ncc(Cl)c(-c4cnc5ccccn45)n3)C2)CC1 [compound 400] | < 500 | 
27 |  | < 100 |  |  | C=CC(=O)N1CC(F)(F)C[C@H]1C(=O)N[C@H]1CCC[C@@H](Nc2ncc(C#N)c(-c3c[nH]c4ccccc34)n2)C1 [compound 392] | < 500 | 
